This note sets out measurements from US9096602B2, “Substituted pyrrolo[2,3-B]pyrazines as ATR kinase inhibitors” (Vertex Pharmaceuticals Incorporated, priority 2011, dated 2015).

A value given as a limit tells only on which side of the number the result lay.

One assay deals with T1, ATR kinase (full-length ATR) (Homo sapiens, UniProt Q13535).
T1 construct: Assays were carried out at 25° C. in the presence of 5 nM full-length ATR
T1 sequence (Q13535 whole entry): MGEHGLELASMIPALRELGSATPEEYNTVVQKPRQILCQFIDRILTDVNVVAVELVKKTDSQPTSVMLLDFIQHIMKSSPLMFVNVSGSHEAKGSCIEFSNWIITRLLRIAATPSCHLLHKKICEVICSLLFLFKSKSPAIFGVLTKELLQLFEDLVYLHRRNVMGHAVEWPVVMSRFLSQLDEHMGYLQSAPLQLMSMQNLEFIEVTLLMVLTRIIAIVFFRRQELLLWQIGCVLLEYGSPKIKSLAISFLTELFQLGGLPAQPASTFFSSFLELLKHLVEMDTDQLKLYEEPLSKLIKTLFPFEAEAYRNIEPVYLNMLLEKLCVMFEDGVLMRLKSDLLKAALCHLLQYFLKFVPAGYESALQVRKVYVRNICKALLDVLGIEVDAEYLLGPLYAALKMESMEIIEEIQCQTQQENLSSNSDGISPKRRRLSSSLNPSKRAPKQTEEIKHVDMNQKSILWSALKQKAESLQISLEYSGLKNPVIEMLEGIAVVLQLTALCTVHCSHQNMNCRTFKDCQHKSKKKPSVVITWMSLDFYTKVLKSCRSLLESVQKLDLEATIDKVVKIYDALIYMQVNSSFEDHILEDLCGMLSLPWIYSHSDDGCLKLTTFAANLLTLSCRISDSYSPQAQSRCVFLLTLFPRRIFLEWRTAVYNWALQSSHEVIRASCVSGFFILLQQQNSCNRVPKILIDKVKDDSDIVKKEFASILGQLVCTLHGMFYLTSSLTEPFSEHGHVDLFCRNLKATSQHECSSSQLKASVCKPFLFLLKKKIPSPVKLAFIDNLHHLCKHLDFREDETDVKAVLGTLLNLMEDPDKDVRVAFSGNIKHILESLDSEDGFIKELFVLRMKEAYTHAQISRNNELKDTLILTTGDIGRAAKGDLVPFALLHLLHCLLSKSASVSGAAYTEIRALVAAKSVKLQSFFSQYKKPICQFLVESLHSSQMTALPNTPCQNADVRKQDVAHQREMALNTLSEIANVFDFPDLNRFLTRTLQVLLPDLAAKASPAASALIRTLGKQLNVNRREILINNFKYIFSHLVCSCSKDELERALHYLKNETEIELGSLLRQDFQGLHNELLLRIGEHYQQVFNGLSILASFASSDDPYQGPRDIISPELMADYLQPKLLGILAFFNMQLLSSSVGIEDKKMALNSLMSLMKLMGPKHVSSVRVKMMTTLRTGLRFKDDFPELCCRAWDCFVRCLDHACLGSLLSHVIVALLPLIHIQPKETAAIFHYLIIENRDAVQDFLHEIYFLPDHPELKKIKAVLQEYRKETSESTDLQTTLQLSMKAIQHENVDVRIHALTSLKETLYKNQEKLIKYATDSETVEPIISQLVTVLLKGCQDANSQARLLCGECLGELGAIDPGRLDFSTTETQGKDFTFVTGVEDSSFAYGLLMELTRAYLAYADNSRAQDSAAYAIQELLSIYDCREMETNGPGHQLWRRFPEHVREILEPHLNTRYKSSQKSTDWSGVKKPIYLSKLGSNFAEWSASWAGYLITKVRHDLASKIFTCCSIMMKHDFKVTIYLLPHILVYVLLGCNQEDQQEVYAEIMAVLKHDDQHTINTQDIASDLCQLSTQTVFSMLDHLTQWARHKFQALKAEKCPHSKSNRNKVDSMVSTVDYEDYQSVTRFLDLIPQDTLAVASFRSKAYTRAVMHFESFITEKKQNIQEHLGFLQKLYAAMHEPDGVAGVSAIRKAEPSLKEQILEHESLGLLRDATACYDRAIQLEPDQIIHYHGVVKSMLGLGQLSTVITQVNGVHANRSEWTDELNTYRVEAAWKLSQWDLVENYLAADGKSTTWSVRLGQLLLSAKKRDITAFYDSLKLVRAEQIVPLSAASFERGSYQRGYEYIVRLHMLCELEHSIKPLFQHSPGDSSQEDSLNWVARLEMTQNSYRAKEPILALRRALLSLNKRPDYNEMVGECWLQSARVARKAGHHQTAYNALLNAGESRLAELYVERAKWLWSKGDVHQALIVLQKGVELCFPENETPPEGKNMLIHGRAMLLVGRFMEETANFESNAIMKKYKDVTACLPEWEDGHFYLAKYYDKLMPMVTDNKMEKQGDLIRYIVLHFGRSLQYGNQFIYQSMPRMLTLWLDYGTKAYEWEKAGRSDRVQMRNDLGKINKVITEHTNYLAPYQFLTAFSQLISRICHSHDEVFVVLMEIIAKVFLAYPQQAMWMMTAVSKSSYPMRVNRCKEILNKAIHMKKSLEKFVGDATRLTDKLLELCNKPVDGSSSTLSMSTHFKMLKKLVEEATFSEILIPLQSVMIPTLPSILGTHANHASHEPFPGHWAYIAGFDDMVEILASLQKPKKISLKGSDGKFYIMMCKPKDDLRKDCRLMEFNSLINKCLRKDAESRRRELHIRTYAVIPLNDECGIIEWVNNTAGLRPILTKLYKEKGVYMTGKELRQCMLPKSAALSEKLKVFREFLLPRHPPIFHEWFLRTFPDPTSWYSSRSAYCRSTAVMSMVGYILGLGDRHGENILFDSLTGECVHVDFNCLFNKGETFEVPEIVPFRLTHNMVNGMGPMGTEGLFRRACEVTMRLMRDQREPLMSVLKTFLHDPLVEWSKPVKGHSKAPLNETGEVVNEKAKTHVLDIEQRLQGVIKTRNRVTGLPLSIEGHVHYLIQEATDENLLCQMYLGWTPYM
Briefly: ATR Inhibition Assay (radioactive-phosphate incorporation). Format: biochemical. As to conditions: Ki(app); 5 nM full-length ATR, 10 μM ATP, 800 μM target peptide, 25° C.; class symbols; read-out: ATR Inhibition Ki. In a few lines: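 Radiometric 33P filter assay with 5 nM full-length ATR in 50 mM Tris/HCl pH 7.5, 10 mM MgCl2, 1 mM DTT at 25 °C. Final 10 μM [γ-33P]ATP and 800 μM peptide; 10 min compound preincubation, ATP start, stopped at 24 h with phosphoric acid/ATP. Ki(app) from non-linear regression of background-corrected initial rates.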
With `CC(c1ccccc1F)N(C)C(=O)c1c[nH]c2ncc(-c3ccc(S(=O)(=O)C(C)C)cc3)nc12` (stereo not shown) [Compound I-109, N-[1-(2-fluorophenyl)ethyl]-2-(4-isopropylsulfonylphenyl)-N-methyl-5H-pyrrolo[2,3-b]pyrazine-7-carboxamide], the Ki is 500 to 5000 nM.

Regarding `CC(C)S(=O)(=O)c1ccc(-c2cnc3[nH]cc(C(=O)NC4CCC4)c3n2)cc1` [Compound I-97, N-cyclobutyl-2-(4-isopropylsulfonylphenyl)-5H-pyrrolo[2,3-b]pyrazine-7-carboxamide], the Ki is 100 to 500 nM.

Turning to `CC(C)S(=O)(=O)c1ccc(-c2cnc3[nH]cc(C(=O)N[C@@H]4c5ccccc5C[C@@H]4O)c3n2)cc1` [Compound I-65, N-[(1R,2S)-2-hydroxyindan-1-yl]-2-(4-isopropylsulfonylphenyl)-5H-pyrrolo[2,3-b]pyrazine-7-carboxamide], the Ki lay in the range of 500 to 5000 nM.

Consider `CC(c1cccc(Cl)c1)N(C)C(=O)c1c[nH]c2ncc(-c3ccc(S(=O)(=O)C(C)C)cc3)nc12` (stereo not shown) [Compound I-126, N-[1-(3-chlorophenyl)ethyl]-2-(4-isopropylsulfonylphenyl)-N-methyl-5H-pyrrolo[2,3-b]pyrazine-7-carboxamide], for which the Ki was < 100 nM.

On to `CC(C)S(=O)(=O)c1ccc(-c2cnc3[nH]cc(C(=O)N4CCCc5ccccc54)c3n2)cc1` [Compound I-27, 3,4-dihydro-2H-quinolin-1-yl-[2-(4-isopropylsulfonylphenyl)-5H-pyrrolo[2,3-b]pyrazin-7-yl]methanone], for which the Ki lay within 100 to 500 nM.

Turning to `CC(C)S(=O)(=O)c1ccc(-c2cnc3[nH]cc(C(=O)N4CCc5ccccc54)c3n2)cc1` [Compound I-7, indolin-1-yl-[2-(4-isopropylsulfonylphenyl)-5H-pyrrolo[2,3-b]pyrazin-7-yl]methanone], the Ki lay in the range of 100 to 500 nM.

Regarding `CC(C)S(=O)(=O)c1ccc(-c2cnc3[nH]cc(C(=O)Nc4ccccc4C#N)c3n2)cc1` [Compound I-41, N-(2-cyanophenyl)-2-(4-isopropylsulfonylphenyl)-5H-pyrrolo[2,3-b]pyrazine-7-carboxamide], the Ki was < 100 nM.

As for `CC(C)S(=O)(=O)c1ccc(-c2cnc3[nH]cc(C(=O)Nc4cccc(N)c4)c3n2)cc1` [Compound I-20, N-(3-aminophenyl)-2-(4-isopropylsulfonylphenyl)-5H-pyrrolo[2,3-b]pyrazine-7-carboxamide], the Ki is < 100 nM.

Take `CC(C)S(=O)(=O)c1ccc(-c2cnc3[nH]cc(C(=O)NCc4ccncc4)c3n2)cc1` [Compound I-60, 2-(4-isopropylsulfonylphenyl)-N-(4-pyridylmethyl)-5H-pyrrolo[2,3-b]pyrazine-7-carboxamide]: the Ki was 100 to 500 nM.

In the case of `CC(C)S(=O)(=O)c1ccc(-c2cnc3[nH]cc(C(=O)NCc4ccccc4Cl)c3n2)cc1` [Compound I-48, N-[(2-chlorophenyl)methyl]-2-(4-isopropylsulfonylphenyl)-5H-pyrrolo[2,3-b]pyrazine-7-carboxamide], the Ki is < 100 nM.

Regarding `CC(C)S(=O)(=O)c1ccc(-c2cnc3[nH]cc(C(=O)NCc4cccc(F)c4F)c3n2)cc1` [Compound I-88, N-[(2,3-difluorophenyl)methyl]-2-(4-isopropylsulfonylphenyl)-5H-pyrrolo[2,3-b]pyrazine-7-carboxamide], the Ki was < 100 nM.

In the case of `Cc1cc(NC(=O)c2c[nH]c3ncc(-c4ccc(S(=O)(=O)C(C)C)cc4)nc23)[nH]n1` [Compound I-55, 2-(4-isopropylsulfonylphenyl)-N-(3-methyl-1H-pyrazol-5-yl)-5H-pyrrolo[2,3-b]pyrazine-7-carboxamide], the Ki is < 100 nM.

Consider `CC(C)S(=O)(=O)c1ccc(-c2cnc3[nH]cc(C(=O)NCc4ccccc4CO)c3n2)cc1` [Compound I-129, N-[[2-(hydroxymethyl)phenyl]methyl]-2-(4-isopropylsulfonylphenyl)-5H-pyrrolo[2,3-b]pyrazine-7-carboxamide], for which the Ki was < 100 nM.

Take `CCC(CC)NC(=O)c1c[nH]c2ncc(-c3ccc(S(=O)(=O)C(C)C)cc3)nc12` [Compound I-107, N-(1-ethylpropyl)-2-(4-isopropylsulfonylphenyl)-5H-pyrrolo[2,3-b]pyrazine-7-carboxamide]: the Ki was in the range of 500 to 5000 nM.

For the molecule `CC(C)S(=O)(=O)c1ccc(-c2cnc3[nH]cc(C(=O)Nc4ccccc4CCO)c3n2)cc1` [Compound I-50, N-[2-(2-hydroxyethyl)phenyl]-2-(4-isopropylsulfonylphenyl)-5H-pyrrolo[2,3-b]pyrazine-7-carboxamide], the Ki fell in the range of 100 to 500 nM.

As to `CC(C)S(=O)(=O)c1ccc(-c2cnc3[nH]cc(C(=O)NCC4CCCC4)c3n2)cc1` [Compound I-30, N-(cyclopentylmethyl)-2-(4-isopropylsulfonylphenyl)-5H-pyrrolo[2,3-b]pyrazine-7-carboxamide], the Ki is 500 to 5000 nM.

In the case of `CC(C)S(=O)(=O)c1ccc(-c2cnc3[nH]cc(C(=O)N[C@H]4c5ccccc5C[C@H]4O)c3n2)cc1` [Compound I-69, N-[(1S,2R)-2-hydroxyindan-1-yl]-2-(4-isopropylsulfonylphenyl)-5H-pyrrolo[2,3-b]pyrazine-7-carboxamide], the Ki is < 100 nM.

As to `Cc1ccc(Cl)cc1CNC(=O)c1c[nH]c2ncc(-c3ccc(S(=O)(=O)C(C)C)cc3)nc12` [Compound I-67, N-[(5-chloro-2-methyl-phenyl)methyl]-2-(4-isopropylsulfonylphenyl)-5H-pyrrolo[2,3-b]pyrazine-7-carboxamide], the Ki was < 100 nM.

Regarding `CC(C)S(=O)(=O)c1ccc(-c2cnc3[nH]cc(C(=O)NC(CCO)c4cccc(N)c4)c3n2)cc1` (stereo not shown) [Compound I-79, N-[1-(3-aminophenyl)-3-hydroxy-propyl]-2-(4-isopropylsulfonylphenyl)-5H-pyrrolo[2,3-b]pyrazine-7-carboxamide], the Ki lay within 100 to 500 nM.

Turning to `CC(C)S(=O)(=O)c1ccc(-c2cnc3[nH]cc(C(=O)Nc4cccnc4)c3n2)cc1` [Compound I-5, 2-(4-isopropylsulfonylphenyl)-N-(3-pyridyl)-5H-pyrrolo[2,3-b]pyrazine-7-carboxamide], the Ki was < 100 nM.

Consider `COC[C@H](NC(=O)c1c[nH]c2ncc(-c3ccc(S(=O)(=O)C(C)C)cc3)nc12)c1ccccc1` [Compound I-58, 2-(4-isopropylsulfonylphenyl)-N-[(1R)-2-methoxy-1-phenyl-ethyl]-5H-pyrrolo[2,3-b]pyrazine-7-carboxamide], for which the Ki is 500 to 5000 nM.

On to `CC(C)S(=O)(=O)c1ccc(-c2cnc3[nH]cc(C(=O)N4CCN(C)CC4)c3n2)cc1` [Compound I-114, [2-(4-isopropylsulfonylphenyl)-5H-pyrrolo[2,3-b]pyrazin-7-yl]-(4-methylpiperazin-1-yl)methanone], for which the Ki fell in the range of 500 to 5000 nM.

Consider `CC(C)S(=O)(=O)c1ccc(-c2cnc3[nH]cc(C(=O)N[C@@H](C)c4ccccc4)c3n2)cc1` [Compound I-35, 2-(4-isopropylsulfonylphenyl)-N-[(1S)-1-phenylethyl]-5H-pyrrolo[2,3-b]pyrazine-7-carboxamide], for which the Ki was 500 to 5000 nM.

Turning to `Cc1ccccc1CNC(=O)c1c[nH]c2ncc(-c3ccc(S(=O)(=O)C(C)C)cc3)nc12` [Compound I-15, 2-(4-isopropylsulfonylphenyl)-N-(o-tolylmethyl)-5H-pyrrolo[2,3-b]pyrazine-7-carboxamide], the Ki is < 100 nM.

Take `CC(C)S(=O)(=O)c1ccc(-c2cnc3[nH]cc(C(=O)Nc4ccccn4)c3n2)cc1` [Compound I-4, 2-(4-isopropylsulfonylphenyl)-N-(2-pyridyl)-5H-pyrrolo[2,3-b]pyrazine-7-carboxamide]: the Ki fell in the range of 100 to 500 nM.

For `CC(C)S(=O)(=O)c1ccc(-c2cnc3[nH]cc(C(=O)NC4CCS(=O)(=O)C4)c3n2)cc1` (stereo not shown) [Compound I-103, N-(1,1-dioxothiolan-3-yl)-2-(4-isopropylsulfonylphenyl)-5H-pyrrolo[2,3-b]pyrazine-7-carboxamide], the Ki lay in the range of 500 to 5000 nM.

Still in this assay, the particulars now being: Ki(app); 5 nM full-length ATR, 10 μM ATP, 800 μM target peptide, 25° C.; given as numeric lower bound without unit; read-out: ATR Inhibition Ki.
As for `CC(C)S(=O)(=O)c1ccc(-c2cnc3[nH]cc(C(=O)N4CC5CCC(C4)O5)c3n2)cc1` [Compound I-116, [2-(4-isopropylsulfonylphenyl)-5H-pyrrolo[2,3-b]pyrazin-7-yl]-(8-oxa-3-azabicyclo[3.2.1]octan-3-yl)methanone], the Ki was > 1000 nM.

For `CC(C)S(=O)(=O)c1ccc(-c2cnc3[nH]cc(C(=O)N4CCCNCC4)c3n2)cc1` [Compound I-136, 1,4-diazepan-1-yl-[2-(4-isopropylsulfonylphenyl)-5H-pyrrolo[2,3-b]pyrazin-7-yl]methanone], the Ki was > 250 nM.
